Here are results for seven molecules from PubChem BioAssay (NCI).

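Step 1: Grow cells in 96-well plates. Step 2: Expose to compound for 48 hours at 5 concentrations. Step 3: Interpolate endpoints linearly; if unreached, use highest concentration. Definition used: TGI = concentration required for complete inhibition of growth.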

Holding throughout (test): growth of human tumour cells (NCI), 48 h
For test [1], the system named is NCI-H522 lung.
Test [2] relates to HOP-62 NSCLC.
Test [3] concerns OVCAR-4 ovarian.
Test [4] relates to LOX IMVI melanoma.
The test system of test [5] is PC-3 prostate.
Test [6] has as its system SN12C renal.
Test [7] deals with SF-295 CNS.
Test [8] deals with RXF 393 renal.
Test [9] relates to MDA-MB-231 breast.
The subject of test [10] is CCRF-CEM leukemia.
The subject of test [11] is DU-145 prostate.
Test [12] concerns ACHN renal.
Test [13] deals with MDA-MB-435.
Test [14] concerns UACC-62 melanoma.
In test [15] the test system is HCT-15 colon.
The test system of test [16] is SW-620 colon.
The test system of test [17] is NCI-H23 lung.
The subject of test [18] is TK-10 renal.
In test [19] the test system is T-47D breast.
The subject of test [20] is MALME-3M melanoma.

On to `CC(=O)c1ccccc1NS(=O)(=O)c1ccc2nc(C)n(NS(=O)(=O)c3ccccc3C(C)=O)c(=O)c2c1`, for which the TGI in test [1], in [2], in test [3], in test [4], in [5] and in test [6] was more than 100 µM throughout. Also, the TGI in test [7], in test [8], in test [9], in test [10], in test [11] and in test [12] was more than 100 µM each time. The TGI in test [13], in test [14], in test [15], in [16], in test [17] and in [18] was more than 100 µM each time. The TGI in test [19] and in test [20] was more than 100 µM in each case.

Regarding `CSc1ccc2c(cc1=O)[C@@H](NC(=O)c1ccc([N+](=O)[O-])cc1)CCc1cc(O)c(O)c(O)c1-2`, the TGI is more than 100 µM in test [1]; 33.4 µM in [2]; more than 100 µM in [3]; more than 100 µM in test [4]; more than 100 µM in [5]; 62.5 µM in test [6]. For the same molecule, the TGI in test [7] was more than 100 µM; in test [8], more than 100 µM; in test [9], 81.2 µM; in test [10], more than 100 µM; in test [11], more than 100 µM; in test [12] it was more than 100 µM. In addition, the TGI in test [13] was more than 100 µM; in [14], more than 100 µM; in test [15] it was 85.1 µM; in test [16], more than 100 µM; in [17] it was more than 100 µM; in test [18], more than 100 µM. Moreover, the TGI in test [19] and in test [20] was more than 100 µM throughout.

`CC(=O)OCCOCCN1CCN(c2c(O)c3c(c(O)c2Cl)C(=O)C=CC3=O)CC1`: the TGI in [1] is 0.583 µM; in test [2] it was 7.1 µM; in test [3] it was 1.32 µM; in test [4], 1.66 µM; in test [5] it was 3.28 µM; in test [6] it was 1.77 µM. The TGI came out at 3.72 µM in test [7]; 1.93 µM in [8]; 1.09 µM in test [9]; 3.29 µM in test [11]; 0.757 µM in test [12]; 1.95 µM in [13]. The TGI is 2.81 µM in test [14]; 1.23 µM in test [15]; 0.475 µM in [16]; 1.98 µM in test [17]; 1.62 µM in [18]; 2.77 µM in test [19]. Also, the TGI in test [20] worked out at 0.96 µM.

Consider `Nc1c2c(nc3ccccc13)CCCc1ccccc1-2`, for which the TGI in test [1] was determined as 37.2 µM; in [2], 28 µM; in test [3], 84.8 µM; in test [4] it was 22.1 µM; in [5], 40.5 µM; in test [6] it was 39.5 µM. Also, the TGI in [7] was 24 µM; in test [8], 24.7 µM; in test [9], 19.8 µM; in test [11], 80.3 µM; in test [12] it was 23 µM; in test [13], 24.7 µM. Also, the TGI is 20.8 µM in [14]; 35.5 µM in test [15]; 26.6 µM in test [16]; more than 100 µM in [17]; 18.8 µM in test [18]; 37.5 µM in test [19]. Further, in test [20], the TGI was 33.5 µM.

For the molecule `COC(=O)C1=COc2c(n(C)c3ccccc23)-c2ccccc21`, the TGI in test [2], in [4], in test [5], in [6], in test [7] and in test [8] was more than 100 µM in each case. The TGI in test [9], in test [10], in test [11], in test [12], in [13] and in test [14] was more than 100 µM each time. Further, the TGI in test [15], in [16], in test [17], in test [18], in [19] and in [20] was more than 100 µM throughout.

For `CC(=O)OC(=C(C#N)C#N)c1nccnc1C(C)=O`, the TGI in test [1], in test [3], in test [4], in [5], in test [6] and in [7] was more than 20 µM throughout. The TGI is 15.7 µM in test [8]; more than 20 µM in test [9]; more than 20 µM in test [10]; more than 20 µM in test [11]; more than 20 µM in [12]; more than 20 µM in [13]. In addition, the TGI in test [14], in test [15], in [16], in test [17], in test [19] and in test [20] was more than 20 µM each time.

Consider `NC(C(=O)OC(=O)c1ccccc1)C(=O)OC(=O)c1ccccc1`, for which the TGI in test [1], in test [2], in test [3], in [4], in test [5] and in test [6] was more than 100 µM throughout. Also, the TGI in [7], in [8], in [9], in test [10], in test [11] and in [12] was more than 100 µM throughout. The TGI in [13], in test [15], in test [16], in test [17], in [18] and in [19] was more than 100 µM in each case. The molecule also yielded a TGI in [20] of more than 100 µM.
